Assay [1] deals with rat laser-induced macular degeneration model (choroidal neovascularization). The experiment in a line: Example 3: DP antagonist, plaque volume of choroidal neovascularization in rat laser-induced macular degeneration model. Type of assay: in vivo, brown Norway rats (Rattus norvegicus). The following applies: oral, twice each day on days -1 to 14; CNV volumes measured on day 14; FIG. 4. An excerpt:
FIG. 4 is a histogram of the results of an analysis of the effect of DP antagonist 2-(3-{6-[2-(2,4-dichloro-phenyl)-ethylamino]-2-methoxy-pyrimidin-4-yl}-phenyl)-2-methyl-propionic acid phosphoric acid salt (“Compound V” for purposes of this figure) on the plaque volume of choroidal neovascularization in the rat laser-induced macular degeneration model. Indomethacin was used as a positive control.
In this example, the effect of DP antagonist 2-(3-{6-[2-(2,4-dichloro-phenyl)-ethylamino]-2-methoxy-pyrimidin-4-yl}-phenyl)-2-methyl-propionic acid phosphoric acid salt (the compound) on plaque volume of choroidal neovascularization in the rat laser-induced macular degeneration model. As in the Examples discussed above, brown Norway rats (Rattus norvegicus) were used in this example. The rats received laser coagulation on day 0.[…] The compound was then administered orally twice each day on days −1 to 14. Indomethacin (positive control) was similarly administered twice daily. On day 14, the rats were sacrificed and choroidal neovascular (CNV) volumes were measured on day 14.

Assay [2] has as its system rat laser induced macular degeneration model (choroidal neovascularization). The experiment in a line: Example 1: rat laser-induced choroidal neovascularization, histopathology of CNV plaque thickness (first set of study). Type of assay: in vivo, Brown Norway rats (Rattus norvegicus). From the text:
Fifty male Brown Norway (strain BN/RijHsd) rats (Rattus norvegicus), 4-7 weeks old (50-124 g each), were purchased from Harlan (Indianapolis, Ind.), received in good condition. The animals were quarantined and acclimated for three (3) days. […] 50 animals were arbitrarily assigned to study groups and given permanent identification numbers.
The retinae (both eyes of each rat) were lased using a retinal lasering device with an attached Kowa PortSlit, SC14; Keeler Fison Indirect Ophthalmoscope (Lens 30 Diopter). Rats were briefly anesthetized and the eyes were dilated and coverslips were used as necessary to flatten the cornea. Each retina was lased with 186 mW, 75 μm spot sizes, 0.1 sec duration, applied to (approximately) 9-, 12- and 3-o'clock positions, 2-3 disk diameters from the optic nerve of each eye as feasible as determined by the surgeon. Rupture of the Bruch's membrane was identified by bubble formation, which occurred immediately at the site of photocoagulation. Rats were briefly anesthetized and administered fluoroscein to visualize the retinal vasculature post surgically and prior to necropsy. Representative photographs of the retinas were taken using a Kowa retinal camera for rodents. The photographs were taken to assure that vascular lesions were present immediately following the laser procedure and immediately prior to necropsy.
2-[4-(7-ethyl-5H-pyrrolo[2,3-b]pyrazin-6-yl)-phenyl]-propan-2-ol A and 2-(3-fluoro-phenyl)-4-methyl-pyrimidine-5-carboxylic acid indol-1-ylamide were formulated in vehicle twice weekly during the study. Vehicle consisted of 0.5% methylcellulose, 0.2% Tween 20 in sterile water for injection, and was formulated once weekly. 2-(3-fluoro-phenyl)-4-methyl-pyrimidine-5-carboxylic acid indol-1-ylamide test article was reconstituted in vehicle at 0.6, 2, and 6 mg/mL; 2-(3-fluoro-phenyl)-4-methyl-pyrimidine-5-carboxylic acid indol-1-ylamide control article was reconstituted at 2 mg/mL. All solutions were stored refrigerated at 2-8° C. between dose administrations, and mixed prior to each dose administration.
Animals were dosed via twice daily oral gavage at 5 mL/kg, starting immediately prior to lasing and continuing for 14 days. Dose volumes were recalculated weekly based on the most recent body weight. Note that animals were lased on two sequential days, but were sacrificed together on a single day to facilitate handling during necropsy. Therefore, animals of the first cohort (Groups 1-3) received an extra (29th) dose on the morning of Day 14 to permit terminal bleed and sacrifice within 2-4 hr of final dose administration.
The fundus was photographed on Day 0, at the time of lasing or shortly thereafter, and on Day 13 or 14, prior to sacrifice. At each time point, retinal vasculature was illuminated by intravenous (IV) injection of each animal, several minutes before photography, with 0.1 mL of a 10% solution of fluorescein dye. Each eye was dilated with a mydriatic and photographed with Kowa Small Animal Fundus Camera. The purpose of the fundus photography was to confirm the presence lesions following lasing and prior to necropsy. Any animal found not to have lesions would be removed from study and replaced.
Following fundus photography and terminal bleeds, animals were sacrificed per SOPs. […]
The slides were evaluated visually, qualitatively and semi-quantitatively. The nuclei of new vessels growing on the retinal were counted. […]

For assay [3], the system named is rat laser-induced macular degeneration model (choroidal neovascularization). The assay is described as follows: Example 4: hPGDS inhibitor, plaque volume of choroidal neovascularization in rat laser-induced macular degeneration model. The following applies: oral, twice each day on days -1 to 14; measured after fourteen days; FIG. 5. It is filed as in vivo, brown Norway rats. As for the experimental part: FIG. 5 is a histogram of the results of an analysis of the effect of the hPDGS inhibitor 4-Methyl-2-pyridin-2-yl-pyrimidine-5-carboxylic acid (5-fluoro-3-methyl-indol-1-yl)-amide (“Compound VI” for purposes of this figure) on the plaque volume of choroidal neovascularization in the rat laser-induced macular degeneration model. Indomethacin was used as a positive control.
In this example, the same experiment was performed with the rat laser-induced macular degeneration model to determine whether the hPDGS inhibitor 4-Methyl-2-pyridin-2-yl-pyrimidine-5-carboxylic acid (5-fluoro-3-methyl-indol-1-yl)-amide could limit the plaque volume of choroidal neovascularization
In particular, the hPDGS inhibitor 4-Methyl-2-pyridin-2-yl-pyrimidine-5-carboxylic acid (5-fluoro-3-methyl-indol-1-yl)-amide (the compound) was administered orally to the rats twice each day on days −1 to day 14. On day 0, a laser was used to induce choroidal neovascularization in the eye of the brown Norway rats. Indomethacin was administered to a control group similarly, i.e., twice each day from day −1 to day 14.
After fourteen days, the rats were sacrificed and the plaque volume of choroidal neovascularization in the eye was measured.

Assay [4] shares this test system. The assay is described as follows: Example 5: hPGDS inhibitor, CNV volume by flat-mount fluorescence 3D modeling in rat laser-induced macular degeneration model. Type of assay: in vivo, BN rats (Rattus norvegicus; strain Brown Norway). The following applies: oral, twice (or once) each day on days -1 to 7; CNV volumes measured on day 7; FIGS. 6A, 6B, 6C. The procedure:
FIG. 6A is a histogram of the results of the effect of the hPDGS inhibitor 2-Pyridin-2-yl-pyrimidine-5-carboxylic acid 3-[5-(1-hydroxy-1-methyl-ethyl)-1,2,4-oxadiazol-3-yl]-benzylamide (“Compound VII” for purposes of this figure) against a laser-induced choroidal neovascularization in the rat: 1st dose-response study. 2-Pyridin-2-yl-pyrimidine-5-carboxylic acid 3-[5-(1-hydroxy-1-methyl-ethyl)-1,2,4-oxadiazol-3-yl]-benzylamide was administered orally twice each day on days −1 to 7. Doxycycline was used as a positive control.
FIG. 6B is a histogram of the results of the effect of the hPDGS inhibitor 2-pyridin-2-yl-pyrimidine-5-carboxylic acid 3-[5-(1-hydroxy-1-methyl-ethyl)-1,2,4-oxadiazol-3-yl]-benzylamide (“Compound VII” for purposes of this figure) against a laser-induced choroidal neovascularization in the rat: 2nd dose-response study. 2-pyridine-2-yl-pyrimidine-5-carboxylic acid 3-[5-(1-hydroxy-1-methyl-ethyl)-1,2,4-oxadiazol-3-yl]-benzylamide was administered orally twice each day on days −1 to 7. CELEBREX was used as a positive control. […]
In this example, the effect of hPGDS antagonist 2-Pyridin-2-yl-pyrimidine-5-carboxylic acid 3-[5-(1-hydroxy-1-methyl-ethyl)-1,2,4-oxadiazol-3-yl]-benzylamide was evaluated using the rat laser-induced macular degeneration model. […] Choroidal neovascular (CNV) volumes were measured on day 7. […]

“Also recorded” adds a separate entry of the source.

On to `COc1nc(NCCc2ccc(Cl)cc2Cl)cc(-c2cccc(C(C)(C)C(=O)O)c2)n1.O=P(O)(O)O` [2-(3-{6-[2-(2,4-Dichloro-phenyl)-ethylamino]-2-methoxy-pyrimidin-4-yl}-phenyl)-2-methyl-propionic Acid Phosphoric Acid Salt], for which the “limiting the volume of choroidal neovascularization” value in assay [1] is “very effective”.

As to `Cc1nc(-c2cccc(F)c2)ncc1C(=O)Nn1ccc2ccccc21` [2-(3-Fluoro-phenyl)-4-methyl-pyrimidine-5-carboxylic acid indol-1-ylamide], the “reduction of CNV plaque thickness” value in assay [2] (10 mpk, PO) amounted to 40.7%.

Turning to `CCc1c(-c2ccc(C(C)(C)O)cc2)[nH]c2nccnc12` [2-[4-(7-Ethyl-5H-pyrrolo[2,3-b]pyrazin-6-yl)-phenyl]-propan-2-ol], the “reduction of CNV plaque thickness” value in assay [2] (3 mpk, PO) is on record as 11.3%; in assay [2] (10 mpk, PO), 36.6%; in assay [2] (30 mpk, PO) it was 32.2%.

As to `CC1(C)O[C@@H]2C[C@H]3[C@@H]4CCC5=CC(=O)C=C[C@]5(C)[C@@]4(F)[C@@H](O)C[C@]3(C)[C@]2(C(=O)CO)O1` [Triamcinolone Acetonide, reference compound], in assay [2] (positive control, intravitreal injection), the “reduction of CNV plaque thickness” value is on record as 25.9%.

For the compound `Cc1nc(-c2ccccn2)ncc1C(=O)Nn1cc(C)c2cc(F)ccc21` [4-Methyl-2-pyridin-2-yl-pyrimidine-5-carboxylic acid (5-fluoro-3-methyl-indol-1-yl)-amide], in assay [3], the “limiting the plaque volume of choroidal neovascularization” value is listed as “effective; also recorded: very effective”.

As to `CC(C)(O)c1nc(-c2cccc(CNC(=O)c3cnc(-c4ccccn4)nc3)c2)no1` [2-Pyridin-2-yl-pyrimidine-5-carboxylic acid 3-[5-(1-hydroxy-1-methyl-ethyl)-1,2,4-oxadiazol-3-yl]-benzylamide], in assay [4], the “limiting CNV volume” value is listed as “effective”.

Values taken from US20110301125A1, “Method for Treating Macular Degeneration” (SANOFI-AVENTIS, priority 2008, published 2011).
